The source of these data is patent US20180177778A1, “Methods for Treating HCV” (priority 2015, published 2018).

Data set [1] in a line: Effect of food on bioavailability of co-formulated tablets, healthy Japanese subjects (Example 20). The format is in vivo, human. To be noted: for Tmax: both sexes, mean Tmax. An excerpt:
Japanese male and female volunteers 20 to 55 years of age in general good health with a body mass index ≥18.5 and <25 kg/m^2 were eligible to enroll. Subjects who had positive test results for hepatitis A, B, or C, or for HIV infection, and subjects who were using known inhibitors or inducers of CYP3A isozyme or organic anion transporting polypeptide 1B1 (OATP1B1) inhibitors were excluded from participation. Subjects were not to have consumed alcohol, grapefruit, star fruit, or Seville oranges within 72 hours, or to have used nicotine-containing products within 6 months before study drug administration.
This was a 2-sequence 2-period crossover study. A single dose of two ombitasvir/paritaprevir/ritonavir 12.5/75/50 mg coformulated tablets (total dose of 25/150/100 mg) was administered in the morning on Study Day 1 of each period as follows:
PK parameters for ombitasvir, paritaprevir, and ritonavir were estimated by noncompartmental methods using Phoenix WinNonlin, version 6.3 (Pharsight, A Certara® Company, St. Louis, Mo.) including maximum plasma concentration (Cmax), time to Cmax (Tmax), area under the plasma concentration-time curve (AUC), and terminal-phase elimination half-life (t1/2). The effect of food on the bioavailability of ombitasvir, paritaprevir, and ritonavir was assessed using a repeated measures analysis of natural logarithms of Cmax and AUC values. Point estimates of central value ratios and their 90% confidence intervals (CIs) for Cmax and AUC were calculated to quantify the magnitude of food effect. Statistical analyses were conducted using SAS, version 9.2 (SAS Institute, Inc., Cary, N.C.).

Data set [2] is described as follows: Population pharmacokinetics in HCV GT1 subjects with CKD Stage 4 or 5 (Example 17). The data set is classed as in vivo, human. The note with it: vs subjects without kidney disease. As for the experimental part:
Pharmacokinetic data from a Phase 2 study (N=38) in subjects with normal or mild renal impairment (subjects “without kidney disease”) were combined with preliminary data from a Phase 3b study in subjects with CKD Stage 4 (N=5) or Stage 5 on hemodialysis (N=14). In both studies subjects received OBV/PTV/r 25/150/100 mg QD and DSV 250 mg BID±RBV for 12 weeks. Pharmacokinetic parameters and steady-state exposures of the 3-DAA regimen were estimated using population pharmacokinetic models.

For data set [3] the following is noted: in vivo; cited from earlier work.
The conditions of data set [4]: human, in vivo. As for the experimental part: All subjects received ombitasvir/paritaprevir/ritonavir 25/150/100 mg QD and dasabuvir 250 mg BID±weight based RBV. DAAs (OBV, PTV, or DSV) and RTV AUC values were available from 2093 subjects and RBV AUC values were available from 1584 subjects. The dataset included subjects with normal renal function (NF) (CrCl ≥90 mL/min, n=1495), mild renal impairment (RI) (CrCL 60-89 mL/min, n=576) and moderate RI (CrCL 30-59 mL/min, n=22). […] CrCL was retained in the models, regardless of its statistical significance, to determine the effect, if any, on the AUC values.

In the case of “dimethyl (2S,2′S)-1,1′-((2S,2′S)-2,2′-(4,4′-((2S,5S)-1-(4-tert-butylphenyl)pyrrolidine-2,5,diyl)bis(4,1-phenylene))bis(azanediyl)bis(oxomethylene)bis(pyrrolidine-2,1-diyl)bis(3-methyl-1-oxobutane-2,1-diyl)dicarbamate [Compound 2]”, the “mean Tmax” value in data set [1] (fasting conditions, single dose 25/150/100 mg) was 4.4 h; in data set [1] (with a high fat meal, single dose 25/150/100 mg), 5.3 h. Also, the “increase of mean AUC” value in data set [1] (high fat meal relative to fasting, Japanese subjects) worked out at 73%. The “exposures higher in CKD Stage 4 subjects” value in data set [2] was “about 80%”.

`NC(=O)c1ncn([C@@H]2O[C@H](CO)[C@@H](O)[C@H]2O)n1` [Ribavirin, ribavirin]: the absolute bioavailability entry in data set [3] was “approximately 50%”. Besides, the “AUC values higher in mild/moderate RI compared to NF” value in data set [4] is “up to 17%”.

Turning to `CC(C)c1nc(CN(C)C(=O)N[C@H](C(=O)N[C@@H](Cc2ccccc2)C[C@H](O)[C@H](Cc2ccccc2)NC(=O)OCc2cncs2)C(C)C)cs1` [ritonavir, reference compound], in data set [1] (human, in vivo), the Tmax was found to be 3.4 h. For the same compound, in data set [1] (both, human, in vivo), the “increase of mean AUC” value is 34% and the “mean Tmax” value is listed as 4.9 h. For the same compound, in data set [2], the “exposures higher in CKD Stage 4 subjects” value is around 200% and the “exposures lower in CKD Stage 5” value is listed as “about 33%”.

Consider `Cc1cnc(C(=O)N[C@H]2CCCCC/C=C\[C@@H]3C[C@@]3(C(=O)NS(=O)(=O)C3CC3)NC(=O)[C@@H]3C[C@@H](Oc4nc5ccccc5c5ccccc45)CN3C2=O)cn1` [Compound 1, (2R,6S,13aS,14aR,16aS,Z)—N-(cyclopropylsulfonyl)-6-(5-methylpyrazine-2-carboxamido)-5,16-dioxo-2-(phenanthridin-6-yloxy)-1,2,3,5,6,7,8,9,10,11,13a,14,14a,15,16,16a-hexadecahydrocyclopropa[e]pyrrolo[1,2-a][1,4]diazacyclopentadecine-14a-carboxamide], for which the Tmax in data set [1] (human, in vivo) was determined as 4.2 h. Besides, in data set [1] (both, human, in vivo), the “increase of mean AUC” value was determined as 228% and the “mean Tmax” value came to 5.2 h.

For `COc1c(-c2ccc3cc(NS(C)(=O)=O)ccc3c2)cc(-n2ccc(=O)[nH]c2=O)cc1C(C)(C)C` [Compound 3, N-(6-(3-tert-butyl-5-(2,4-dioxo-3,4-dihydropyrimidin-1(2H)-yl)-2-methoxyphenyl)naphthalen-2-yl)methanesulfonamide], in data set [2], the “exposures lower in CKD Stage 5” value was around 37%.
